According to ChEMBL document CHEMBL1140772, “Discovery of indenopyrazoles as EGFR and VEGFR-2 tyrosine kinase inhibitors by in silico high-throughput screening” (Bioorg Med Chem Lett, 2008):
Activity calls are given as the source filed them. The calls are words filed in the database; no cut-off is given here.

How the values were obtained:
[1] = molecular target: Receptor tyrosine-protein kinase erbB-2 (Homo sapiens) (UniProt P04626); assay: Inhibition of HER2 at 1 uM
A-431 [2] = assay: Growth inhibition of human A431 cells overexpressing EGFR after 72 hrs by MTT assay; format: functional; conditions: A-431, 72 h
[3] = molecular target: Vascular endothelial growth factor receptor 2 (Homo sapiens, UniProt P35968); assay: Inhibition of KDR
Chain of Vascular endothelial growth factor receptor 2 (P35968 whole entry): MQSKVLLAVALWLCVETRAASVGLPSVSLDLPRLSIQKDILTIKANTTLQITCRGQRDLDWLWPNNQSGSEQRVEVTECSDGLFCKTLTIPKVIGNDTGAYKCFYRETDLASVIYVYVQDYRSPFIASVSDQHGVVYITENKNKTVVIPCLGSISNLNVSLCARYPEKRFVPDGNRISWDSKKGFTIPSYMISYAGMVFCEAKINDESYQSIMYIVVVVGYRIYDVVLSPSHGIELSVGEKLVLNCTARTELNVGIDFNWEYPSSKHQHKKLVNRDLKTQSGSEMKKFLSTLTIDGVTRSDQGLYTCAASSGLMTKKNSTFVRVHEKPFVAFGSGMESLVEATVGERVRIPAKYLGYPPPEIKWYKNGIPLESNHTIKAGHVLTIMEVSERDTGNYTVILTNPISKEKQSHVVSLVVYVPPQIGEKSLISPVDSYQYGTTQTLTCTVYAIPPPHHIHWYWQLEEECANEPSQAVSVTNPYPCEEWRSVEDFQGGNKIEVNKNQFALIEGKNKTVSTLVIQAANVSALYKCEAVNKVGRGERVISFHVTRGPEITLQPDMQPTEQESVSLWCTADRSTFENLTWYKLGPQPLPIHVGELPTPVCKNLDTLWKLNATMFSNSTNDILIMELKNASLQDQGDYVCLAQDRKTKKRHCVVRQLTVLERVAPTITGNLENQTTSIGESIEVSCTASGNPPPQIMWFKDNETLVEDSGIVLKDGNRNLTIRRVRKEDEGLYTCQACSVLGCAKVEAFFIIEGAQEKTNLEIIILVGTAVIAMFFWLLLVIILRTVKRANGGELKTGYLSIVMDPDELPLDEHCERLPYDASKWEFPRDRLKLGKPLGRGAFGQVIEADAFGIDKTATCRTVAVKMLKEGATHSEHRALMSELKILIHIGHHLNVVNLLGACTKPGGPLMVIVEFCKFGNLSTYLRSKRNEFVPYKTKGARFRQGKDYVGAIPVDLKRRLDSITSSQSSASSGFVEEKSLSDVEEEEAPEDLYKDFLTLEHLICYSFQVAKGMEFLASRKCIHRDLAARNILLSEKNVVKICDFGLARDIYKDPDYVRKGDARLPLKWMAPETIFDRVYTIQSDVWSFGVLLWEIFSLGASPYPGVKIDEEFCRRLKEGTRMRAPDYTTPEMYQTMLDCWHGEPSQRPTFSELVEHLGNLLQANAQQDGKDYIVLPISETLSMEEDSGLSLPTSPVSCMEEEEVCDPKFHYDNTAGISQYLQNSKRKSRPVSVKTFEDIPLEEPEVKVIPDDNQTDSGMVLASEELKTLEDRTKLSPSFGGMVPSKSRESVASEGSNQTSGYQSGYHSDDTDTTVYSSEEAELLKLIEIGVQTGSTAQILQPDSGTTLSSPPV

A-431 [4] = assay: Inhibition of human CDK in A431 cells assessed as inhibition of phosphorylation of Rb at 1 uM after 12 hrs; format: cell-based

Chain of Receptor tyrosine-protein kinase erbB-2 (Homo sapiens) (P04626 whole entry): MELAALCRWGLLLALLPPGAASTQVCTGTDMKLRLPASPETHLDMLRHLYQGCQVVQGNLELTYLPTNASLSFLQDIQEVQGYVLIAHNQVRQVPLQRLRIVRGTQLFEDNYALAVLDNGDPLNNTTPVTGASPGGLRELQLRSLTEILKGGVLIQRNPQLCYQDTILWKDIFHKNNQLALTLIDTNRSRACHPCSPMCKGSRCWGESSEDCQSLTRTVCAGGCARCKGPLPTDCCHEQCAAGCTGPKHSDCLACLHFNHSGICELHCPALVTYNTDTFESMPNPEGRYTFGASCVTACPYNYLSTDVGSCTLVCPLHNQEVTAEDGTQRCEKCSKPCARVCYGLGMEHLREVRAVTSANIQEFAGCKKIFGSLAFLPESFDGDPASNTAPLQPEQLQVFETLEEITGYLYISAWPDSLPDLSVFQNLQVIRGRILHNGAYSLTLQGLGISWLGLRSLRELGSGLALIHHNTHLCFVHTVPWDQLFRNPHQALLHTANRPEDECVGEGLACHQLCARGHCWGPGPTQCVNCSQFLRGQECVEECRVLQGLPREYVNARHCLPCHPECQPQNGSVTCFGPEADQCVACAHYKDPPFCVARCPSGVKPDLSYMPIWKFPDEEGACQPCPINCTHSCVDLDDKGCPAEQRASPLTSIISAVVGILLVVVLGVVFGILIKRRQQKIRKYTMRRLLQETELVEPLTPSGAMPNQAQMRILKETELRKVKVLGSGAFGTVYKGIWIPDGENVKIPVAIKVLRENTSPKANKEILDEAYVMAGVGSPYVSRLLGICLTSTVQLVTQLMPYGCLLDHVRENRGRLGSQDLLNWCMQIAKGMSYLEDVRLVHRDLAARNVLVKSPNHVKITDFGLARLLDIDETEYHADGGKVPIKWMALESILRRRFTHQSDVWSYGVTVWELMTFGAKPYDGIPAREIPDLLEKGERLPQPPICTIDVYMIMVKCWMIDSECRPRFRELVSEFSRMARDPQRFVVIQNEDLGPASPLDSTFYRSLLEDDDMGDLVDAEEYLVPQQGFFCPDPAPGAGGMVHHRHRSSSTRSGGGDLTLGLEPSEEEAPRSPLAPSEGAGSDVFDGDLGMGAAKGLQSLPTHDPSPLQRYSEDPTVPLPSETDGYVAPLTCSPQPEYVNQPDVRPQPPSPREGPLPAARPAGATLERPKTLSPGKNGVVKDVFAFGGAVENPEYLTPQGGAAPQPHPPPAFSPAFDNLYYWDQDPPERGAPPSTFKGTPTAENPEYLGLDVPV

| Structure (SMILES) | inhibition [1] [%] | GI50 (A-431 [2]) [µM] | IC50 [3] [µM] | Activity (A-431 [4]) |
| --- | --- | --- | --- | --- |
| COc1ccc(-c2[nH]nc3c2C(=O)c2c(NC(=O)Nc4ccc(O)cc4)cccc2-3)cc1 | 8 | > 10 | – | – |
| Nc1ccc(NC(=O)Nc2cccc3c2C(=O)c2c-3n[nH]c2-c2ccc(O)cc2)cc1 | 7 | > 10 | 0.65 | – |
| Nc1ccc(NC(=O)Nc2cccc3c2C(=O)c2c-3n[nH]c2-c2ccc3c(c2)OCO3)cc1 | 28 | 0.062 | 0.38 | Active |
| COc1ccc(-c2[nH]nc3c2C(=O)c2c(NC(=O)Nc4ccc(N)cc4)cccc2-3)cc1 | 6 | 1.59 | – | – |
| Nc1ccc(NC(=O)Nc2cccc3c2C(=O)c2c-3n[nH]c2-c2ccc(O)c(O)c2)cc1 | 3 | 4.79 | – | – |
| O=C(Nc1ccc(O)cc1)Nc1cccc2c1C(=O)c1c-2n[nH]c1-c1ccc2c(c1)OCO2 | 2 | 0.056 | 0.7 | Active |
